Experimental data published in article PMC8623418, “Novel Multitarget Hydroxamic Acids with a Natural Origin CAP Group against Alzheimer’s Disease: Synthesis, Docking and Biological Evaluation” (Pharmaceutics, 2021).
Where two headings read alike, the source gives them in different places.

Key:
β-amyloid 1–40 = β-amyloid 1–40 aggregation, Thioflavin T fluorescence; assay type: biochemical; conditions: 100 μM, 72 h incubation
Method: (§1) The effect of the studied compounds on the aggregation of β-amyloid (1–40/1–42) was analyzed using the method of recording Thioflavin T fluorescence (10 µM) for 72 h at 37 °C. The fluorescence signal was measured using a multifunctional flatbed analyzer, the Cytation ™ 3 (BioTek Instruments, Inc., Winooski, VT, USA), at λex = 450 nm, λem = 480 nm.
(§2) The effect of hydroxamic acids on the stage of aggregation of the pathological β-amyloid peptide was investigated for 72 h using two model systems—fragments Aβ1–40 and Aβ1–42. The fluorophore Thioflavin T was used as an indicator of the ongoing fibrillation process, the interaction of which with proteins in the state of amyloid fibrils leads to an increase in the fluorescence signal.

HEK 293 cells = experiment: MTT cell viability, HEK 293; assay type: cell-based; conditions: Homo sapiens, HEK293; HEK-293, MTT test
Method: (§3) The effect of the hydroxamic acids on the viability of cells obtained from human embryonic kidneys, HEK 293, as well as the native form of human neuroblastoma, SH-SY5Y, was evaluated in the MTT test. Using a multifunctional flatbed analyzer, Cytation™3 (BioTek Instruments, Inc., Winooski, VT, USA), the optical density was determined at a wavelength of 530 nm. Based on the dose-dependent curves, the concentration values leading to 50% inhibition of cell population growth (IC50) were calculated.
(§4) Due to the fact that most compounds of the class of hydroxamic acids have high cytotoxic activity and are mainly used as anticancer drugs, their use as neuroprotective drugs is limited. Since the goal of our work was to search for agents for the pharmacological correction of neurodegenerative diseases, a necessary part of the biological activity study of the synthesized hydroxamic acids was to determine their effect on the survival of cell cultures. In our work, we used neuron-like neuroblastoma cells SH-SY5Y and a healthy cell line isolated from the human embryonic kidney, HEK 293.

HDAC6 = molecular target: T1, HDAC6 (Homo sapiens, UniProt Q9UBN7); experiment: HDAC6 enzyme activity, FLUOR DE LYS fluorometric kit; assay type: biochemical
T1 construct: purchased Enzo Life Sciences (Enzo Biochem, New York, NY, USA)
T1 sequence (Q9UBN7 1-1215): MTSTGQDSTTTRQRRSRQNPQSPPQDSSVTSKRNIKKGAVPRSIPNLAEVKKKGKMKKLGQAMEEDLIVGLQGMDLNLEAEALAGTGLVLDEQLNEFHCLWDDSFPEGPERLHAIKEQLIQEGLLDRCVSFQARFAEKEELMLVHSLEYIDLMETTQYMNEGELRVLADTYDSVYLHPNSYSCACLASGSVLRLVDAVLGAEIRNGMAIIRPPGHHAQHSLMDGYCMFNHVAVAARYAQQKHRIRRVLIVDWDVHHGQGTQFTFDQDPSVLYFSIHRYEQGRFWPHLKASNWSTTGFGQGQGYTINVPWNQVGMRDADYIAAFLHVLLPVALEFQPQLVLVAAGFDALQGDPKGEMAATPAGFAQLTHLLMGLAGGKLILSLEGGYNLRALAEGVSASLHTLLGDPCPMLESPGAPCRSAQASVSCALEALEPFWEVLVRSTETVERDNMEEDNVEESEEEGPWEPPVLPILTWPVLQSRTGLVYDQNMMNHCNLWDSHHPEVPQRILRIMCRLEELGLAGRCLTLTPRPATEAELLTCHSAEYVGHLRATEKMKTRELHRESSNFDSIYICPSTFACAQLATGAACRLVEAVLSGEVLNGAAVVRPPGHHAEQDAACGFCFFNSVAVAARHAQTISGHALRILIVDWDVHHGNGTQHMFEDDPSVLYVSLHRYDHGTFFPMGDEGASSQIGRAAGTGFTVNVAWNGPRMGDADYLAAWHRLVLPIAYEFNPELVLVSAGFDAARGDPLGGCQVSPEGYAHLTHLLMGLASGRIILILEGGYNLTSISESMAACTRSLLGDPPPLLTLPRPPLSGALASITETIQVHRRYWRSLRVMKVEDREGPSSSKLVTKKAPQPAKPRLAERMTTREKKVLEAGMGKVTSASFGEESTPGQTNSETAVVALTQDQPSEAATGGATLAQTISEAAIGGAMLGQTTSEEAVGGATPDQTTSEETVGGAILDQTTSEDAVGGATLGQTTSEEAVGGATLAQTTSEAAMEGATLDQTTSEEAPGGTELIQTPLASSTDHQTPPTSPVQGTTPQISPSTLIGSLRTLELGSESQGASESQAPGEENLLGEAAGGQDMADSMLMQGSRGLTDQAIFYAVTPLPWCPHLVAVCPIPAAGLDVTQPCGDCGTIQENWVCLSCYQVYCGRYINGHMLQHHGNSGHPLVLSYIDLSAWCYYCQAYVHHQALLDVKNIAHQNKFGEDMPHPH

β-amyloid 1–42 = system: T2, β-amyloid 1–42; experiment: β-amyloid 1–42 aggregation, Thioflavin T fluorescence; assay type: biochemical; conditions: 100 μM, 72 h incubation
T2 construct: fragments Aβ1–40 and Aβ1–42
Method: as §1, §2

SH-SY5Y cells = experiment: MTT cell viability, SH-SY5Y; assay type: cell-based; conditions: Homo sapiens, MTT test
Method: as §3, §4

[1] = DPPH test of antiradical activity; conditions: substances at 100 μM, mean ± SEM
Method: The DPPH test was used to examine antiradical activity based on the ability of a stable chromogen radical of 2,2-diphenyl-1-picrylhydrazyl (DPPH) to remove a hydrogen atom, which is accompanied by a change in the absorption maximum in the electronic absorption spectra. The amount of reduced DPPH was measured using a Cytation ™ 3 multifunctional plate analyzer (BioTek Instruments, Inc., Winooski, VT, USA) at a wavelength of 517 nm.
The antiradical activity of the test compounds was evaluated by the DPPH test, based on the ability of antioxidants to donate an electron to the stable chromogen radical DPPH, converting it into a nonradical form and neutralizing its activity. […] The chromogenic free radical DPPH used in this test has a large size, and substances even with a similar chemical structure may have different antiradical properties due to spatially difficult access.

[2] = system: lipid peroxidation (LPO) of rat brain homogenate; experiment: Lipid peroxidation (LPO) of rat brain homogenate, TBARS test; assay type: biochemical; conditions: substances at 100 μM, mean ± SEM; for % of Activity, Inhibition of LPO, Fe (II): Fe (II)-induced; for % of Activity, Inhibition of LPO, t-BHP: t-BHP-induced
Method: To obtain the brain homogenate, rats preliminarily anesthetized with CO2 were decapitated with a guillotine. The brain was homogenized in a buffer containing KCl (120 mM) and HEPES (20 mM), pH = 7.4 at 4 °C, and centrifuged at 1500 rpm to obtain a supernatant. The protein was quantified according to the standard microbiuret method.
To investigate the effect of the compounds on lipid peroxidation (LPO) of rat brain homogenate, we used the modified version of the TBARS test, which is based on the reaction of 2-thiobarbituric acid with the end LPO product—malonic dialdehyde (MDA). The plate well, according to the experimental scheme, contained the compounds under study (100 μM), rat brain homogenate (2 mg/mL), as well as ferrous iron ions ([…]) at a concentration of 500 μM and 1.6 mM tert-butyl hydroxyperoxide as an initiator. After 30 min of incubation at 37 °C, TBARS reagent was added to all samples, incubated for 90 min at 90 °C, and centrifuged at 6000 rpm for 15 min. The optical density of the selected supernatant was measured on a Victor 3 plate reader (Perkin Elmer) at λ = 540 nm.
A rat brain homogenate preparation containing fragments of cell membranes was used as a model system to investigate the antioxidant activity of the hydroxamic acids. To initiate the process of lipid peroxidation, ferrous ions were used to trigger the Fenton reaction, during which the iron valence changes and a highly reactive hydroxyl radical is formed, and tert-butyl hydroxyperoxide as a direct source of free radicals.

[3] = mean ± SEM, read-out: IC50 HDAC6 Inhibitory Activity

Row | Structure (SMILES) | Effect on β-amyloid 1–40 aggregation (β-amyloid 1–40) | IC50 (HEK 293 cells) | IC50 (HDAC6; [3]) | melting point | Effect on β-amyloid 1–42 aggregation (β-amyloid 1–42) | IC50 (SH-SY5Y cells) | % of Activity, Antiradical Activity [1] | % of Activity, Inhibition of LPO, Fe (II) [2] | % of Activity, Inhibition of LPO, t-BHP [2] | IC50 (HDAC6; Table S2, used for correlation with pKi, read-out: pIC50 (from experimental HDAC6 IC50) (converted))
1 | O=C(CCCCCCCC(=O)NC1C2CC3CC(C2)CC1C3)NO (stereo not drawn) [compound 16, N^1-(Adamantan-2-yl)-N^9-Hydroxynonanediamide] | noticeable fibrillation inhibition | 49.5 ± 3.43 µM | 0.74 ± 0.01 µM | 133.2 °C | noticeable fibrillation inhibition | > 100 µM | - (The ‘-’ mark indicates the lack of activity of the test substances (≤10%) in a particular test) | 26.41 ± 2.58% | 16.27 ± 0.42% | –
2 | CC1(C)[C@@H]2CCC1(C)[C@H](NC(=O)/C=C/c1ccc(C(=O)NO)cc1)C2 [compound 23, N-Hydroxy-4-((E)-3-Oxo-3-(((2R,4R)-1,7,7-Trimethylbicyclo[2.2.1]heptan-2-yl)amino)prop-1-en-1-yl)benzamide] | noticeable fibrillation inhibition | 68.3 ± 2.22 µM | 18 ± 1.02 µM | 202.5 °C | noticeable fibrillation inhibition | 64.2 ± 4.1 µM | 20.14 ± 1.28% | 32.91 ± 1.12% | 18.26 ± 4.90% | –
3 | CC1(C)C(NC(=O)/C=C/c2ccc(C(=O)NO)cc2)[C@@]2(C)CC[C@H]1C2 (stereo partly drawn) [compound 24, N-Hydroxy-4-((E)-3-Oxo-3-(((1S,4S)-1,3,3-Trimethylbicyclo[2.2.1]heptan-2-yl)amino)prop-1-en-1-yl)benzamide] | noticeable fibrillation inhibition | 60.2 ± 1 µM | ≤ 6.5 µM | – | noticeable fibrillation inhibition | 52 ± 2.61 µM | 20.32 ± 0.41% | 34.16 ± 1.37% | 20.63 ± 3.92% | 15.3 µM
